US20150141381A1, “TETRACYCLINE COMPOUNDS HAVING TARGET THERAPEUTIC ACTIVITIES” (Paratek Pharmaceuticals, Inc., priority 2001, published 2015)
Like-named read-outs stand apart in the source and are kept apart here.

Columns and labels:
S. aureus RN450 = test: In Vitro Anti-Bacterial Activity Assay (MIC), gram positive; assay type: cell-based; conditions: Staphylococcus aureus, RN450, 18 h
E. coli mL308 225 = test: In Vitro Anti-Bacterial Activity Assay (MIC), gram negative; assay type: cell-based; conditions: Escherichia coli, ML308225, 18 h
[1] = gram positive bacteria, read-out: Antibiotic Activity Gram + (MIC)
[2] = gram negative bacteria, read-out: Antibiotic Activity Gram − (MIC)
[3] = MIC class, Table 3, read-out: Antibiotic Activity Gram +
[4] = MIC class, Table 3, read-out: Antibiotic Activity Gram −
[5] = MIC class, Table 3 (Continued), read-out: Gram+ activity
[6] = MIC class, Table 3 (Continued), read-out: Gram− activity
[7] = read-out: Antibiotic Activity Gram +
[8] = read-out: Antibiotic Activity Gram −

Row | Structure (SMILES) | MIC (S. aureus RN450; [1]) [µg/mL] | MIC (E. coli mL308 225; [2]) [µg/mL] | MIC (S. aureus RN450; [3]) [µg/mL] | MIC (E. coli mL308 225; [4]) [µg/mL] | further results
1 | CCCCC#Cc1cc(N(C)C)c2c(c1O)C(=O)C1=C(O)[C@]3(O)C(=O)C(C(N)=O)=C(O)[C@@H](N(C)C)[C@@H]3C[C@@H]1C2 | < 4 | < 4 | – | – | –
2 | CN(C)[C@@H]1C(O)=C(C(N)=O)C(=O)[C@@]2(O)C(O)=C3C(=O)c4c(O)c(CN)cc(-c5ccc(F)cc5)c4C[C@H]3C[C@@H]12 [DF] | – | – | < 4 | > 4 | –
3 | CN(C)[C@@H]1C(O)=C(C(N)=O)C(=O)[C@@]2(O)C(O)=C3C(=O)c4c(O)ccc(-c5ccc(C(=O)O)cc5)c4C[C@H]3C[C@@H]12 [BN] | – | – | < 4 | > 4 | –
4 | CCC(NCc1cc(N(C)C)c2c(c1O)C(=O)C1=C(O)[C@]3(O)C(=O)C(C(N)=O)=C(O)C(N(C)C)[C@@H]3C[C@@H]1C2)C(F)(F)F (some centres unmarked) [NT] | – | – | < 4 | > 4 | –
5 | COc1ccc(C(=O)Nc2ccc(-c3ccc(O)c4c3C[C@H]3C[C@H]5C(N(C)C)C(O)=C(C(N)=O)C(=O)[C@@]5(O)C(O)=C3C4=O)cc2)cc1 (some centres unmarked) [HT] | – | – | < 4 | > 4 | –
6 | COc1ccc(-c2ccc(O)c3c2C[C@H]2C[C@H]4[C@H](N(C)C)C(O)=C(C(N)=O)C(=O)[C@@]4(O)C(O)=C2C3=O)c(OC)c1OC [JM] | – | – | < 4 | > 4 | –
7 | CCOP(=O)(OCC)C(Nc1ccc2c(c1O)C(=O)C1=C(O)[C@]3(O)C(=O)C(C(N)=O)=C(O)[C@@H](N(C)C)[C@@H]3[C@@H](O)[C@@H]1[C@H]2C)c1ccc(OC)cc1 (some centres unmarked) | – | – | – | – | MIC (S. aureus RN450; read-out: Gram+ activity): < 4 µg/mL; MIC (E. coli mL308 225; read-out: Gram− activity): > 4 µg/mL
8 | CN(C)[C@@H]1C(OCc2ccccc2)=C(C(N)=O)C(=O)[C@@]2(O)C(O)=C3C(=O)c4c(cccc4OCc4ccccc4)C[C@H]3C[C@@H]12 [OJ] | – | – | > 4 | > 4 | –
9 | CN(C)[C@@H]1C(O)=C(C(N)=O)C(=O)[C@@]2(O)C(O)=C3C(=O)c4c(ccc(NC(=O)c5ccno5)c4O)C[C@H]3C[C@@H]12 [IJ] | – | – | < 4 | > 4 | –
10 | CN(C)[C@@H]1C(O)=C(C(N)=O)C(=O)[C@@]2(O)C(O)=C3C(=O)c4c(O)c(S(=O)(=O)O)cc(Cl)c4C=C3C[C@@H]12 | > 4 | > 4 | – | – | –
11 | CN(C)c1cc(N2CCCCC2)c(O)c2c1C[C@H]1C[C@H]3[C@H](N(C)C)C(O)=C(C(N)=O)C(=O)[C@@]3(O)C(O)=C1C2=O [NK] | – | – | > 4 | > 4 | –
12 | COC(=O)c1cc(N(C)C)c2c(c1O)C(=O)C1=C(O)[C@]3(O)C(=O)C(C(N)=O)=C(O)C(N(C)C)[C@@H]3C[C@@H]1C2 (some centres unmarked) [MO] | – | – | > 4 | > 4 | –
13 | O=c1cc(-c2ccc(F)cc2)oc2ccccc12 | < 4 | < 4 | – | – | –
14 | C=CCCOC(=O)NCc1cc(N(C)C)c2c(c1O)C(=O)C1=C(O)[C@]3(O)C(=O)C(C(N)=O)=C(O)[C@@H](N(C)C)[C@@H]3C[C@@H]1C2 [EO] | – | – | < 4 | > 4 | –
15 | CN(C)c1cc(NC2CCN(Cc3ccccc3)CC2)c(O)c2c1C[C@H]1C[C@H]3[C@H](N(C)C)C(O)=C(C(N)=O)C(=O)[C@@]3(O)C(O)=C1C2=O [KM] | – | – | > 4 | > 4 | –
16 | CN(C)[C@@H]1C(O)=C(C(N)=O)C(=O)[C@@]2(O)C(O)=C3C(=O)c4c(O)ccc(-c5ccncc5Cl)c4C[C@H]3C[C@@H]12 | < 4 | < 4 | – | – | –
17 | CN(C)[C@@H]1C(O)=C(C(N)=O)C(=O)[C@@]2(O)C(O)=C3C(=O)c4c(O)ccc(N5CCOCC5)c4C[C@H]3C[C@@H]12 [drawing 3548] | < 4 | < 4 | – | – | –
18 | CN(C)[C@@H]1C(O)=C(C(N)=O)C(=O)[C@@]2(O)C(O)=C3C(=O)c4c(ccc(NCCNC(C)(C)C)c4O)C[C@H]3C[C@@H]12 | < 4 | < 4 | – | – | –
19 | CC(CF)N(C)Cc1cc(N(C)C)c2c(c1O)C(=O)C1=C(O)[C@]3(O)C(=O)C(C(N)=O)=C(O)[C@@H](N(C)C)[C@@H]3C[C@@H]1C2 (some centres unmarked) | – | – | – | – | MIC (S. aureus RN450; read-out: Antibiotic Activity Gram + (MIC)): < 4 µg/mL; MIC (E. coli mL308 225; read-out: Antibiotic Activity Gram − (MIC)): > 4 µg/mL
20 | CN(C)[C@@H]1C(O)=C(C(N)=O)C(=O)[C@@]2(O)C(O)=C3C(=O)c4c(O)ccc(C(=O)CN5CCOCC5)c4C[C@H]3C[C@@H]12 | < 4 | > 4 | – | – | –

Row | Structure (SMILES) | MIC (S. aureus RN450; [1]) [µg/mL] | MIC (E. coli mL308 225; [2]) [µg/mL] | MIC (S. aureus RN450; [3]) [µg/mL] | MIC (E. coli mL308 225; [4]) [µg/mL] | further results
21 | CN(C)[C@@H]1C(O)=C(C(N)=O)C(=O)[C@@]2(O)C(O)=C3C(=O)c4c(O)ccc(C#CCO)c4C[C@H]3C[C@@H]12 | < 4 | > 4 | – | – | –
22 | CC(C)CNCc1cc(N(C)C)c2c(c1O)C(=O)C1=C(O)[C@]3(O)C(=O)C(C(N)=O)=C(O)[C@@H](N(C)C)[C@@H]3C[C@@H]1C2 [drawing 3469] | < 4 | < 4 | – | – | –
23 | CCOc1ccccc1-c1ccc(O)c2c1C[C@H]1C[C@H]3[C@H](N(C)C)C(O)=C(C(N)=O)C(=O)[C@@]3(O)C(O)=C1C2=O [AG] | – | – | < 4 | > 4 | –
24 | CN(C)CCN(Cc1ccccc1)Cc1ccc(-c2cc(N(C)C)c3c(c2O)C(=O)C2=C(O)[C@]4(O)C(=O)C(C(N)=O)=C(O)[C@@H](N(C)C)[C@@H]4C[C@@H]2C3)o1 | > 4 | > 4 | – | – | –
25 | COC(=O)c1ccc2c(c1O)C(=O)C1=C(O)[C@]3(O)C(=O)C(C(N)=O)=C(O)[C@@H](N(C)C)[C@@H]3[C@@H](O)[C@@H]1[C@H]2C | > 4 | > 4 | – | – | –
26 | CNCc1cc(CNCC(C)(C)C)c2c(c1O)C(=O)C1=C(O)[C@]3(O)C(=O)C(C(N)=O)=C(O)[C@@H](N(C)C)[C@@H]3C[C@@H]1C2 | > 4 | > 4 | – | – | –
27 | CCOC(=O)C(NCc1ccc(OC)c(-c2ccc(O)c3c2C[C@H]2C[C@H]4[C@H](N(C)C)C(O)=C(C(N)=O)C(=O)[C@@]4(O)C(O)=C2C3=O)c1)C(C)C (some centres unmarked) [FX] | – | – | < 4 | > 4 | –
28 | CN(C)[C@@H]1C(O)=C(C(N)=O)C(=O)[C@@]2(O)C(O)=C3C(=O)c4c(O)ccc(-c5ccc(F)c(C=O)c5)c4C[C@H]3C[C@@H]12 | < 4 | < 4 | – | – | –
29 | CCCN(C)Cc1cc(N(C)C)c2c(c1O)C(=O)C1=C(O)[C@]3(O)C(=O)C(C(N)=O)=C(O)[C@@H](N(C)C)[C@@H]3C[C@@H]1C2 | < 4 | > 4 | – | – | –
30 | CC1c2ccc(-c3ccccc3)c(O)c2C(=O)C2=C(O)[C@]3(O)C(=O)C(C(N)=O)=C(O)[C@@H](N(C)C)[C@@H]3[C@@H](O)[C@@H]21 (some centres unmarked) | – | – | – | – | MIC (S. aureus RN450; [5]): < 4 µg/mL; MIC (E. coli mL308 225; [6]): < 4 µg/mL
31 | Cc1ccc(S(=O)(=O)NCC#Cc2cc(N(C)C)c3c(c2O)C(=O)C2=C(O)[C@]4(O)C(=O)C(C(N)=O)=C(O)C(N(C)C)[C@@H]4C[C@@H]2C3)cc1 (some centres unmarked) [CZ] | – | – | > 4 | > 4 | –
32 | COCC(=O)Nc1cccc(-c2ccc(O)c3c2C[C@H]2C[C@H]4[C@H](N(C)C)C(O)=C(C(N)=O)C(=O)[C@@]4(O)C(O)=C2C3=O)c1 | < 4 | > 4 | – | – | –
33 | CN(C)c1cc(CNc2ccccn2)c(O)c2c1C[C@H]1C[C@H]3[C@H](N(C)C)C(O)=C(C(N)=O)C(=O)[C@@]3(O)C(O)=C1C2=O | < 4 | > 4 | – | – | –
34 | COc1ccc(OC(=O)Nc2cc(N(C)C)c3c(c2O)C(=O)C2=C(O)[C@]4(O)C(=O)C(C(N)=O)=C(O)[C@H](N(C)C)[C@@H]4C[C@@H]2C3)cc1 [DV] | – | – | – | – | MIC (S. aureus RN450; [7]): > 4 µg/mL; MIC (E. coli mL308 225; [8]): > 4 µg/mL
35 | CN(C)[C@@H]1C(O)=C(C(N)=O)C(=O)[C@@]2(O)C(O)=C3C(=O)c4c(O)ccc(CNC5CCNCC5)c4C[C@H]3C[C@@H]12 [LD] | – | – | > 4 | > 4 | –
36 | CN(C)c1cc(CNC(=O)Oc2ccc(F)cc2)c(O)c2c1C[C@H]1C[C@H]3[C@H](N(C)C)C(O)=C(C(N)=O)C(=O)[C@@]3(O)C(O)=C1C2=O [FJ] | – | – | – | – | MIC (S. aureus RN450; [7]): < 4 µg/mL; MIC (E. coli mL308 225; [8]): > 4 µg/mL
37 | CN(C)[C@@H]1C(O)=C(C(N)=O)C(=O)[C@@]2(O)C(O)=C3C(=O)c4c(O)ccc(-c5ccccc5Cl)c4C[C@H]3C[C@@H]12 | – | – | – | – | MIC (S. aureus RN450; [5]): < 4 µg/mL; MIC (E. coli mL308 225; [6]): < 4 µg/mL
38 | CCCCCC(=O)O[C@H]1[C@H]2C(=C(O)[C@]3(O)C(=O)C(C(N)=O)=C(O)[C@@H](N(C)C)[C@H]13)C(=O)c1c(O)cccc1[C@@H]2C [L] | – | – | < 4 | > 4 | –
39 | CCC(=O)c1ccc(O)c2c1C[C@H]1C[C@H]3[C@H](N(C)C)C(O)=C(C(N)=O)C(=O)[C@@]3(O)C(O)=C1C2=O [EA] | – | – | < 4 | < 4 | –
40 | CN(C)c1cc(CNCC2CCCCC2)c(O)c2c1C[C@H]1C[C@H]3[C@H](N(C)C)C(O)=C(C(N)=O)C(=O)[C@@]3(O)C(O)=C1C2=O [MK] | – | – | < 4 | < 4 | –
